Results: US20260265238A1, “COMPOUNDS AND PHARMACEUTICAL COMPOSITIONS THAT DEGRADE SWI/SNF-RELATED MATRIX-ASSOCIATED ACTIN-DEPENDENT REGULATOR OF CHROMATIN SUBFAMILY A” (Plexium, Inc., priority 2023, published 2026)

Key:
[1] = target: T1, SMARCA2-HiBiT HeLa cells (protein which is expressed from the SMARCA2 gene) (Homo sapiens, UniProt P51531); assay: SMARCA2 degradation assay (HiBiT-fusion HeLa cell line, 24 h, luminescence); format: cell-based
T1 construct: protein which is expressed from the SMARCA2 and SMARCA4 genes; host or cells: HeLa (SMARCA2-HiBiT engineered line)
T1 sequence (P51531 whole entry, the tested form may be a part): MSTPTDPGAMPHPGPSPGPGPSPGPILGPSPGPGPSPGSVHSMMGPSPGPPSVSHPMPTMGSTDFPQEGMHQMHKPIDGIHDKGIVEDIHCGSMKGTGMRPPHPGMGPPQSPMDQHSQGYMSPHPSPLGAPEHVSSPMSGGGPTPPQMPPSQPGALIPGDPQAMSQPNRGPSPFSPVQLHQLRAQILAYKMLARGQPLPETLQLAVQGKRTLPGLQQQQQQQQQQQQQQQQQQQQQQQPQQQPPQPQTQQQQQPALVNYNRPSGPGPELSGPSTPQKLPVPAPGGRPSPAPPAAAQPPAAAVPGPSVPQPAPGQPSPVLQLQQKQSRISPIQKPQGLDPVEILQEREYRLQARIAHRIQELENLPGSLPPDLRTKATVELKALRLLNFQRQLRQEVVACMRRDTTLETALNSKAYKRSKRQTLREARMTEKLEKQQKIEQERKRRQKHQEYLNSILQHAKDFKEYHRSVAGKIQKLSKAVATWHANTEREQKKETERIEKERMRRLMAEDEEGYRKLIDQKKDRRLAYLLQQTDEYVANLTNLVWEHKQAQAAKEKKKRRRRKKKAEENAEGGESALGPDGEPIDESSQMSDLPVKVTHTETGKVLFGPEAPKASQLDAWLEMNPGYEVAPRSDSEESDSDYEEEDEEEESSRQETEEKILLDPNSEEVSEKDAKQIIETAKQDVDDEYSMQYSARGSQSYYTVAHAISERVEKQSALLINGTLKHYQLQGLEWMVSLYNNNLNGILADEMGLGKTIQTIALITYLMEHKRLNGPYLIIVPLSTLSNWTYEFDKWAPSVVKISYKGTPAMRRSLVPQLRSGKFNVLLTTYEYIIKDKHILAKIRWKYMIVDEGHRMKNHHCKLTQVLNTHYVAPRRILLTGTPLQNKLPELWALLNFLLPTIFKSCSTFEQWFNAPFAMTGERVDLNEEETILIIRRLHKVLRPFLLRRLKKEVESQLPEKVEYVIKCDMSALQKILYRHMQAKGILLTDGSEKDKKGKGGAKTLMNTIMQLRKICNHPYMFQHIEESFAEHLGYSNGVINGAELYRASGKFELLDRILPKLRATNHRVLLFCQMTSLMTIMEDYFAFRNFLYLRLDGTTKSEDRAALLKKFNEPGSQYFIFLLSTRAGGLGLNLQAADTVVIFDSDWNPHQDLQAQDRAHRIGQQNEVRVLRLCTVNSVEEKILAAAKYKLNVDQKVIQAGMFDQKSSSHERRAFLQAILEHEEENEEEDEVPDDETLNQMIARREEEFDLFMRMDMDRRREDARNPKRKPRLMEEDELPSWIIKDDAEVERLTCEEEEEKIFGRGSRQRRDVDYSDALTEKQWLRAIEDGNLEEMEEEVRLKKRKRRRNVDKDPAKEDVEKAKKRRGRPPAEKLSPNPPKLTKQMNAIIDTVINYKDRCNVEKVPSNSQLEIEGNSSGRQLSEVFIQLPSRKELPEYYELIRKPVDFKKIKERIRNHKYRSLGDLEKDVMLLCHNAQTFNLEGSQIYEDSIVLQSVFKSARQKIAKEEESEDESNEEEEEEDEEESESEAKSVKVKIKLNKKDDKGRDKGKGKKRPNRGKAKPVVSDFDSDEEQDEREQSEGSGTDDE
Procedure, shortened: (§1)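 HiBiT-fusion HeLa lines, 8,000 cells/well, overnight attachment; cpd 10-pt series (typically 10 μM–300 pM), 24 h, 37° C. Lysis with LgBiT + HiBiT substrate, 10 min shaking at RT, luminescence read. DC50 from dose-response fit; % degradation also scored at 1 μM.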

[2] = target: T2, SMARCA4-HiBiT HeLa cells (protein which is expressed from the SMARCA4 gene) (Homo sapiens, UniProt P51532); assay: SMARCA4 degradation assay (HiBiT-fusion HeLa cell line, 24 h, luminescence); format: cell-based
T2 construct: protein which is expressed from the SMARCA2 and SMARCA4 genes; host or cells: HeLa (SMARCA4-HiBiT engineered line)
T2 sequence (P51532 whole entry, the tested form may be a part): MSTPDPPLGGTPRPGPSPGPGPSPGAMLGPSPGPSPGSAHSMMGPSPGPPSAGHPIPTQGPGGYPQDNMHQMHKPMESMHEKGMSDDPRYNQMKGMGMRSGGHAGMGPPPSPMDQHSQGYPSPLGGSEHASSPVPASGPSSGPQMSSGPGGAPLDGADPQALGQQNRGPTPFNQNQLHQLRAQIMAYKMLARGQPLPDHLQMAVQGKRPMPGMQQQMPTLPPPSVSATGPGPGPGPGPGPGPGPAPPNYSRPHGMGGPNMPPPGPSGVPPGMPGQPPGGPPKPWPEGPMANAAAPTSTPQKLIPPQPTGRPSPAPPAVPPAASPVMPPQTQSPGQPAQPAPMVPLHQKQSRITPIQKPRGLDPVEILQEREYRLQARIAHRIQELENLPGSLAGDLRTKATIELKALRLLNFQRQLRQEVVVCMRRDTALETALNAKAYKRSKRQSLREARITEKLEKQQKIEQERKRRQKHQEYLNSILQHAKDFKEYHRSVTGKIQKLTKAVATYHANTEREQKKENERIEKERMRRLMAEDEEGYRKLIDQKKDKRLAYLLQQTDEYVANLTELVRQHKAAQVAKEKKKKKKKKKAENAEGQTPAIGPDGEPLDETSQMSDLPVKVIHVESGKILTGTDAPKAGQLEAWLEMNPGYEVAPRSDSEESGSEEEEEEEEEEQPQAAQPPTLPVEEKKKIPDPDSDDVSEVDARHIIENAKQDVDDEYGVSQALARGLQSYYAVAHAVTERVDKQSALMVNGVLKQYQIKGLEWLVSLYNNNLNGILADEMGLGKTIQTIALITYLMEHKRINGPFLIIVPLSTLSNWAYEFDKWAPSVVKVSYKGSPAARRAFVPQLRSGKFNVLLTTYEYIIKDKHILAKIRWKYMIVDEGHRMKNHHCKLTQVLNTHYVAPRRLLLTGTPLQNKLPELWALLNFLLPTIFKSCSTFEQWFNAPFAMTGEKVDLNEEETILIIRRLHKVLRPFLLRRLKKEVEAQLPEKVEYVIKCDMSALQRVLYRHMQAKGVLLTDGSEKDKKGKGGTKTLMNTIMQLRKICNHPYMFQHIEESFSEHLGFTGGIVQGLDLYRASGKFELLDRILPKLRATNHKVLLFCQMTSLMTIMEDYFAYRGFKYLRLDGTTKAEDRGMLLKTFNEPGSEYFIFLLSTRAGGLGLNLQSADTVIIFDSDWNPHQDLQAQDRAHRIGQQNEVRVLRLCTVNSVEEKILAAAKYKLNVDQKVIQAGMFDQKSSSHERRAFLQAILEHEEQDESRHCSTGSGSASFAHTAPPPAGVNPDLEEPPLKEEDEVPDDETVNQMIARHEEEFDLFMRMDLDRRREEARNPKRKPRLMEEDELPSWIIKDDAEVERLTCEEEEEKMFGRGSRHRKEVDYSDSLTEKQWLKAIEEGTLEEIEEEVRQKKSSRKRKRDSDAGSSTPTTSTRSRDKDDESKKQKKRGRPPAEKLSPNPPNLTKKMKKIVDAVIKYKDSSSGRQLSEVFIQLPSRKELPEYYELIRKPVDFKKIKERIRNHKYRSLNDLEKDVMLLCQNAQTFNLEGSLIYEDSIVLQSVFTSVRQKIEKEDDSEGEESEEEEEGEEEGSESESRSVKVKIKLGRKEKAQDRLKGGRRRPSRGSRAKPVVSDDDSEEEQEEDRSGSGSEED
Procedure, shortened: as §1

SMILES	DC50 [1]	SMARCA2 % Degradation @ 1 μM ([1]; @ 1 μM)	DC50 [2]	inhibition at 1 µM ([2]; @ 1 μM)	SMARCA2 % Degradation @ 1 μM ([1]; 1 μM)	inhibition at 1 µM ([2]; 1 μM)
C[C@@H]1CCN(c2cc(-c3ccccc3O)nnc2N)CCN1c1ccnc(C#CC2CC(F)(F)C2)n1 [Compound P-269, 0-{5-[(R)-4-{2-[2-(3,3-difluorocyclobutyl)ethynyl]-4-pyrimidinyl}-5-methyl-1,4-diazepan-1-y1]-6-amino-3-pyridazinyl} phenol]	50 to 500 nM	+++ (+++=>70%)	50 to 500 nM	> 70%		
Nc1nnc(-c2ccccc2O)cc1N1CC2CCC(C1)N2c1ccnc(C#CCNc2ncco2)n1 [Compound P-106, 2-(6-amino-5-(8-(2-(3-(oxazol-2-ylamino)prop-1-yn-1-yl)pyrimidin-4-yl)-3,8-diazabicyclo[3.2.1]octan-3-yl)pyridazin-3-yl)phenol]	500 to 5000 nM	++ (++=30-70%)	500 to 5000 nM	30 to 70%		
C[C@@H]1CCN(c2cc(-c3ccccc3O)nnc2N)CCN1c1ccnc(C#CCN(C)CC(F)F)n1 [Compound P-155, o-{5-[(R)-4-(2-{3-[(2,2-difluoroethyl)-N-methylamino]-1-propynyl}-4-pyrimidinyl)-5-methyl-1,4-diazepan-1-yl]-6-amino-3-pyridazinyl}phenol]	50 to 500 nM	++ (++=30-70%)	50 to 500 nM	30 to 70%		
C[C@@H]1CCN(c2cc(-c3ccccc3O)nnc2N)CCN1c1ccnc(C#CCN2CCC3(CCC3)C2)n1 [Compound P-237, o-{5-[(R)-4-(2-{3-(6-aza-6-spiro| 3.4 | octyl)-1-propynyl}-4-pyrimidinyl)-5-methyl-1,4-diazepan-1-yl]-6-amino-3-pyridazinyl} phenol]	< 50 nM	+++ (+++=>70%)	< 50 nM	30 to 70%		
Nc1nnc(-c2ccccc2O)cc1N1CCCN(c2ccnc(C#CCN3CCCCC3)n2)CC1 [Compound P-373, 0-(6-amino-5-{4-[2-(3-piperidino-1-propynyl)-4-pyrimidinyl]-1,4-diazepan-1-yl}-3-pyridazinyl)phenol]	50 to 500 nM	+++ (+++=>70%)	50 to 500 nM	30 to 70%		
Nc1nnc(-c2ccccc2O)cc1N1CC2CCC(C1)N2c1ccnc(C#CCNc2nc3ccccc3o2)n1 [Compound P-100, 2-(6-amino-5-(8-(2-(3-(benzo[d]doxazol-2-ylamino)prop-1-yn-1-yl)pyrimidin-4-yl)-3,8-diazabicyclo[3.2.1]octan-3-yl)pyridazin-3-yl)phenol]	50 to 500 nM	+++ (+++=>70%)	50 to 500 nM	30 to 70%		
Nc1nnc(-c2ccccc2O)cc1N1CCCN(c2ccnc(C#CCn3ncc4ccncc43)n2)CC1 [Compound P-116, 2-(5-(4-(2-(3-(1H-pyrazolo[3,4-c]pyridin-1-yl)prop-1-yn-1-yl)pyrimidin-4-yl)-1,4-diazepan-1-yl)-6-aminopyridazin-3-yl)phenol]	50 to 500 nM	+++ (+++=>70%)	50 to 500 nM	30 to 70%		
Nc1nnc(-c2ccccc2O)cc1N1CCCN(c2ccnc(C#CCOc3ncco3)n2)CC1 [Compound P-128, 2-(6-amino-5-(4-(2-(3-(oxazol-2-yloxy)prop-1-yn-1-yl)pyrimidin-4-yl)-1,4-diazepan-1-yl)pyridazin-3-yl)phenol]	< 50 nM	+++ (+++=>70%)	50 to 500 nM	30 to 70%		
CC(C)c1cc(C(C)C)n(CC#Cc2nccc(N3CCCN(c4cc(-c5ccccc5O)nnc4N)CC3)n2)n1 [Compound P-104, 2-(6-amino-5-(4-(2-(3-(3,5-diisopropyl-1H-pyrazol-1-yl)prop-1-yn-1-yl)pyrimidin-4-yl)-1,4-diazepan-1-yl)pyridazin-3-yl)phenol]	50 to 500 nM	+++ (+++=>70%)	500 to 5000 nM	30 to 70%		
CC1CN(c2ccnc(C#CCNC(=O)c3cc4ncccn4n3)n2)CCN(c2cc(-c3ccccc3O)nnc2N)C1 (stereo not shown) [Compound P-27, N-(3-(4-(4-(3-amino-6-(2-hydroxyphenyl)pyridazin-4-yl)-6-methyl-1,4-diazepan-1-yl)pyrimidin-2-yl)prop-2-yn-1-yl)pyrazolo[1,5-a]pyrimidine-2-carboxamide]	50 to 500 nM	+++ (+++=>70%)	50 to 500 nM	> 70%		
C[C@H]1CN(c2ccnc(C#CCn3ccnc3)n2)CCN1c1cc(-c2ccccc2O)nnc1N [Compound P-293, 0-{5-[(S)-4-{2-[3-(1-imidazolyl)-1-propynyl]-4-pyrimidinyl}-2-methyl-1-piperaziny1]-6-amino-3-pyridazinyl}phenol]	50 to 500 nM	++ (++=30-70%)	< 50 nM	< 30%		
Nc1nnc(-c2ccccc2O)cc1N1CCCN(c2ccnc(C#CCn3ccc4ccccc43)n2)CC1 [Compound P-151, 2-(5-(4-(2-(3-(1H-indol-1-yl)prop-1-yn-1-yl)pyrimidin-4-yl)-1,4-diazepan-1-yl)-6-aminopyridazin-3-yl)phenol]	50 to 500 nM	++ (++=30-70%)	50 to 500 nM	30 to 70%		
CC(=O)NCC#Cc1nccc(N2CCCN(c3cc(-c4ccccc4O)nnc3N)CC2)n1 [Compound P-122, N-(3-(4-(4-(3-amino-6-(2-hydroxyphenyl)pyridazin-4-yl)-1,4-diazepan-1-yl)pyrimidin-2-yl)prop-2-yn-1-yl)acetamide]	500 to 5000 nM	++ (++=30-70%)	500 to 5000 nM	< 30%		
C[C@@H]1CCN(c2cc(-c3ccccc3O)nnc2N)CCN1c1ccnc(C#CCO)c1 [Compound P-397, 0-(5-{(R)-4-[2-(3-hydroxy-1-propynyl)-4-pyridyl]-5-methyl-1,4-diazepan-1-yl}-6-amino-3-pyridazinyl)phenol]	50 to 500 nM		500 to 5000 nM		++ (++=30-70%)	30 to 70%
C[C@@H]1CCN(c2cc(-c3ccccc3O)nnc2N)CCN1c1ccnc(/C=C/C2CC2)n1 [Compound P-171, o-(5-{(R)-4-[2-(2-cyclopropylethenyl)-4-pyrimidinyl]-5-methyl-1,4-diazepan-1-yl}-6-amino-3-pyridazinyl)phenol]	50 to 500 nM	++ (++=30-70%)	500 to 5000 nM	< 30%		
Cn1nccc1OCC#Cc1nccc(N2CCCN(c3cc(-c4ccccc4O)nnc3N)CC2)n1 [Compound P-131, 2-(6-amino-5-(4-(2-(3-((1-methyl-1H-pyrazol-5-yl)oxy)prop-1-yn-1-yl)pyrimidin-4-yl)-1,4-diazepan-1-yl)pyridazin-3-yl)phenol]	50 to 500 nM	++ (++=30-70%)	50 to 500 nM	30 to 70%		
Nc1nnc(-c2ccccc2O)cc1N1CCCN(c2ccnc(C#CCn3ccnc3)n2)CC1 [Compound P-145, 2-(5-(4-(2-(3-(1H-imidazol-1-yl)prop-1-yn-1-yl)pyrimidin-4-yl)-1,4-diazepan-1-yl)-6-aminopyridazin-3-yl)phenol]	50 to 500 nM	+++ (+++=>70%)	50 to 500 nM	30 to 70%		
C[C@@H]1CCN(c2cc(-c3ccccc3O)nnc2N)CCN1c1ccnc(C#CCOCC2CC(N(C)C)C2)n1 (stereo partly drawn) [Compound P-251, o-{5-[(R)-4-[2-(3-{[3-(dimethylamino)cyclobutyl]methoxy}-1-propynyl)-4-pyrimidinyl]-5-methyl-1,4-diazepan-1-yl]-6-amino-3-pyridazinyl}phenol]	50 to 500 nM	+++ (+++=>70%)	50 to 500 nM	30 to 70%		
C[C@@H]1CCN1CC#Cc1cc(N2CCN(c3cc(-c4ccccc4O)nnc3N)CC[C@H]2C)ccn1 [Compound P-420, 0-{5-[(R)-4-(2-{3-[(R)-2-methyl-1-azetidinyl]-1-propynyl}-4-pyridyl)-5-methyl-1,4-diazepan-1-yl]-6-amino-3-pyridaziny1}phenol]	< 50 nM		< 50 nM		+++ (+++=>70%)	30 to 70%
CC(C)[C@@H]1COCCN1CC#Cc1nccc(N2CCN(c3cc(-c4ccccc4O)nnc3N)CC[C@H]2C)n1 [Compound P-262, o-{5-[(R)-4-(2-{3-[(R)-3-isopropyl-4-morpholinyl]-1-propynyl}-4-pyrimidinyl)-5-methyl-1,4-diazepan-1-yl]-6-amino-3-pyridazinyl} phenol]	50 to 500 nM	+++ (+++=>70%)	50 to 500 nM	30 to 70%		
CNC/C=C/c1nccc(N2CCN(c3cc(-c4ccccc4O)nnc3N)CC[C@H]2C)n1 [Compound P-165, o-{5-[(R)-5-methyl-4-{2-[3-(methylamino)-1-propenyl]-4-pyrimidinyl}-1,4-diazepan-1-y1]-6-amino-3-pyridaziny1}phenol]	50 to 500 nM	+++ (+++=>70%)	50 to 500 nM	30 to 70%		
Nc1nnc(-c2ccccc2O)cc1N1CC2CCC(C1)N2c1ccnc(C#CCN2CC3CC2C3)n1 [Compound P-188, o-{6-amino-5-[8-(2-{3-(2-azabicyclo[2.1.1]hex-2-yl)-1-propynyl}-4-pyrimidinyl)-3,8-diazabicyclo[3.2.1]oct-3-yl]-3-pyridazinyl}phenol]	< 50 nM	+++ (+++=>70%)	< 50 nM	30 to 70%		
